# Experimental data published in ChEMBL document CHEMBL1201862, “PubChem BioAssay data set” (2004).
# Calls of active or inactive are those of the source.
# Tests used:
# [1] = target: T1, Low molecular weight phosphotyrosine protein phosphatase (Homo sapiens, UniProt P24666); assay type: functional; details: read-out: IC50_Mean
# T1 sequence (P24666 whole entry): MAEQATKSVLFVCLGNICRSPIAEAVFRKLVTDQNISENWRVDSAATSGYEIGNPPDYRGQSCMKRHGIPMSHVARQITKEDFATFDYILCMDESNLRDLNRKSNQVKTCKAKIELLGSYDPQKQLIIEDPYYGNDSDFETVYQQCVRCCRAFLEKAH
# Vero = experiment: viability of Vero cells under compound – cytotoxicity control for flavivirus capping enzyme inhibitors (AID 588742); assay type: functional; details: Chlorocebus sabaeus
# [2] = target: T2, Replicative DNA helicase DnaB (Mycobacterium tuberculosis, UniProt P9WMR3); experiment: DnaB intein splicing inhibitors, dose response, biochemical, cell-free fluorescence (AID 449749); assay type: functional
# T2 sequence (P9WMR3 whole entry): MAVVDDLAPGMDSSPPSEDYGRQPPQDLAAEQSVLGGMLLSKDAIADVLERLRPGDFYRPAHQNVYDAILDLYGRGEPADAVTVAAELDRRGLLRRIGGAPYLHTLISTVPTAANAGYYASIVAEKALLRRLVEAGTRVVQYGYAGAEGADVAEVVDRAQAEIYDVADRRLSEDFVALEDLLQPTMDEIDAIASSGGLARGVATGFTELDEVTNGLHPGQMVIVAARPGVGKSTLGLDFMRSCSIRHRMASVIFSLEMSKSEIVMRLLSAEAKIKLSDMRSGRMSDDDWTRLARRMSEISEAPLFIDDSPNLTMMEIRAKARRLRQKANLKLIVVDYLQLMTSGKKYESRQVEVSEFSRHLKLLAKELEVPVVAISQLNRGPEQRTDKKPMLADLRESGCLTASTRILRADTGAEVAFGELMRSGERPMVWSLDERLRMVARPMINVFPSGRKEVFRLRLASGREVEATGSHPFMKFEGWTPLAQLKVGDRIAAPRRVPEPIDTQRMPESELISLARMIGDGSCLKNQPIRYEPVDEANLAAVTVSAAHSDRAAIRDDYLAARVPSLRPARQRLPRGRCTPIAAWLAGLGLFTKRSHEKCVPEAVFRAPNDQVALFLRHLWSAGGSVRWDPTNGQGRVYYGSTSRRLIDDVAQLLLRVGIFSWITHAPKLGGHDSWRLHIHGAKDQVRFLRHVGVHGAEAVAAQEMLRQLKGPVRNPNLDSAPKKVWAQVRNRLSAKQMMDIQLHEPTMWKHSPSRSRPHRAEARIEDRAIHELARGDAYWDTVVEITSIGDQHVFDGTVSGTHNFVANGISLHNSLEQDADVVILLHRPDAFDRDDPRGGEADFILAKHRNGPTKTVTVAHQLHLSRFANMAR
# Genome polyprotein = Genome polyprotein (dengue virus type 2, UniProt P29990); experiment: flavivirus cap methylation enzyme inhibition – biochemical, confirmation dose response, primary screen (AID 588689); assay type: functional
# Sequence of Genome polyprotein (P29990 2492-3391 limits assumed): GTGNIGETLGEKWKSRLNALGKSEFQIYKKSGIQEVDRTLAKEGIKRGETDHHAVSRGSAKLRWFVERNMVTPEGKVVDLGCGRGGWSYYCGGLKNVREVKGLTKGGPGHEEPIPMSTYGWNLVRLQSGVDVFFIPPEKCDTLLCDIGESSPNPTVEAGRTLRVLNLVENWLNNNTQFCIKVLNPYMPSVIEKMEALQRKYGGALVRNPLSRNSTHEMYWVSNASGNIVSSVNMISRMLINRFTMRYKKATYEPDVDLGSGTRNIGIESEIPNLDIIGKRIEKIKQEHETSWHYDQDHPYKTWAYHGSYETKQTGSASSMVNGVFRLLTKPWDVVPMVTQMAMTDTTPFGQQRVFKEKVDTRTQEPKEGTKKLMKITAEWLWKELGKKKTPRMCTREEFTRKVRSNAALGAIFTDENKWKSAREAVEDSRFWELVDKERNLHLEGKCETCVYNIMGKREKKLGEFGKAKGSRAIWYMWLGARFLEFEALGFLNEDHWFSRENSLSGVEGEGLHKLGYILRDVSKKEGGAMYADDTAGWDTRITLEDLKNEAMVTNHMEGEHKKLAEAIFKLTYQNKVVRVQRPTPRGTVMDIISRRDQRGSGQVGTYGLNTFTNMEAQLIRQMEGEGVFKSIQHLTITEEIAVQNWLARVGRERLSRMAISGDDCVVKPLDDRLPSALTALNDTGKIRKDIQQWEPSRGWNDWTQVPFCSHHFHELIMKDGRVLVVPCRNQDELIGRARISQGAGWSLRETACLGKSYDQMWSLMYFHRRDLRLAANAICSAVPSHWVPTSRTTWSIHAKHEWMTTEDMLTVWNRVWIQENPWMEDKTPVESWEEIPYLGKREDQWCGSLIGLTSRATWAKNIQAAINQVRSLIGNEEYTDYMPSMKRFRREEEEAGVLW
# Protein RecA = target: T3, Protein RecA (Mycobacterium tuberculosis, UniProt P9WHJ3); experiment: Fluorescence Cell-Free Homogeneous Dose Retest to Identify Inhibitors of RecA-Intein Splicing Activity. [Related pubchem assays (depositor defined):AID2097, AID2223, AID489010, AID492950]; assay type: functional
# T3 sequence (P9WHJ3 whole entry): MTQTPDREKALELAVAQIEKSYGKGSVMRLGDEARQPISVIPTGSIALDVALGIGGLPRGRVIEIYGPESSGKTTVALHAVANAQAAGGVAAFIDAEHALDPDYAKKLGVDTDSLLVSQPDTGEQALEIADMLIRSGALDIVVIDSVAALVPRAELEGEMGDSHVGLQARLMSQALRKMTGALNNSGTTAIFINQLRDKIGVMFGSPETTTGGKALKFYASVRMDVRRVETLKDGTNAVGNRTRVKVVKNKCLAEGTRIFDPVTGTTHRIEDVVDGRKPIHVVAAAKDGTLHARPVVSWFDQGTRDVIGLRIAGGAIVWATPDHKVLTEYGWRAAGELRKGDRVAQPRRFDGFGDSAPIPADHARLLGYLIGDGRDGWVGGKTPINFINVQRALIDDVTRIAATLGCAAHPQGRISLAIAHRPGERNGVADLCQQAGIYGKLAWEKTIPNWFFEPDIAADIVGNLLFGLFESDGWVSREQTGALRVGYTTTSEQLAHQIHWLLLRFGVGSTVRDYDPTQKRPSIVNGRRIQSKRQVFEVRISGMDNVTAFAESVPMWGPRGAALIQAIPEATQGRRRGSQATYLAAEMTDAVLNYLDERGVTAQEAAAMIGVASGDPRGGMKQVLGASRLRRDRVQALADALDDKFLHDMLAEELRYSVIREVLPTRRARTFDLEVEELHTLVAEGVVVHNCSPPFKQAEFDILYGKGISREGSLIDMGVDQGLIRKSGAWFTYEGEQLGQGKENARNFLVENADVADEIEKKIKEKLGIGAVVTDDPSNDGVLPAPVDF
# [3] = target: Photoreceptor-specific nuclear receptor (Homo sapiens, UniProt Q9Y5X4); assay type: functional, cell-based;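 further: CHO-S cells with Gal4-NCOR and VP16-NR2E3 two-hybrid luciferase reporter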
# Sequence of Photoreceptor-specific nuclear receptor (Q9Y5X4 whole entry, the tested form may be a part): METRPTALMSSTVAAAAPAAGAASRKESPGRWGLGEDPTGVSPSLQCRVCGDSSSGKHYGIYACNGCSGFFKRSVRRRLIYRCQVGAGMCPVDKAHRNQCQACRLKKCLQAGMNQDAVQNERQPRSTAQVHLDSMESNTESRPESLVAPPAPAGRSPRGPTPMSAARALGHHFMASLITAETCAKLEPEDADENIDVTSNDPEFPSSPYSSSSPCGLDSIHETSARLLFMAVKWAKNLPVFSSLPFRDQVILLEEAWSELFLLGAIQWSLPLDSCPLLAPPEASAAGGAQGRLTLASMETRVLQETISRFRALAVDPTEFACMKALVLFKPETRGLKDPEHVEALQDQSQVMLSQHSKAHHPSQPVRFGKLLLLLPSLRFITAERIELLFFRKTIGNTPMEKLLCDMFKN
# [4] = target: T4, Adenosylmethionine-8-amino-7-oxononanoate aminotransferase (Mycobacterium tuberculosis, UniProt P9WQ81); experiment: Mycobacterium tuberculosis BioA enzyme inhibitor Measured in Biochemical System Using Plate Reader - 2163-02_Inhibitor_Dose_CherryPick_Activity.; assay type: functional, Mycobacterium tuberculosis UT205
# T4 sequence (P9WQ81 whole entry): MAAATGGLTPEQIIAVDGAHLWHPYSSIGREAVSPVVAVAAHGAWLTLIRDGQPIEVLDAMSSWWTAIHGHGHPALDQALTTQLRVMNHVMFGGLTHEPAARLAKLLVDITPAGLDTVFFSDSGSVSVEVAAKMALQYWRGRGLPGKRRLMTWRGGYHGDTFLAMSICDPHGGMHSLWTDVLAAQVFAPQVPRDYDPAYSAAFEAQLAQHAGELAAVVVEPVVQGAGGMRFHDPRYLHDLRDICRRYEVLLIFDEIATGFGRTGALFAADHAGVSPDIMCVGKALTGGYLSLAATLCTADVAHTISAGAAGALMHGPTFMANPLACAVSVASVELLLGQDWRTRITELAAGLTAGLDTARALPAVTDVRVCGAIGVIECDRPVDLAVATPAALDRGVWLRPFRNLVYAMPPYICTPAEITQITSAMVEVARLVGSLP
# [5] = target: T5, Probable nicotinate-nucleotide adenylyltransferase (Staphylococcus aureus (strain N315), UniProt P65502); assay type: functional, Staphylococcus aureus subsp. aureus N315; details: read-out: IC50_Mean;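 on IC50 Mean: confirmatory dose-response retesting of NadD inhibitor hits first found in an ultra-high-throughput screen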
# T5 sequence (P65502 whole entry): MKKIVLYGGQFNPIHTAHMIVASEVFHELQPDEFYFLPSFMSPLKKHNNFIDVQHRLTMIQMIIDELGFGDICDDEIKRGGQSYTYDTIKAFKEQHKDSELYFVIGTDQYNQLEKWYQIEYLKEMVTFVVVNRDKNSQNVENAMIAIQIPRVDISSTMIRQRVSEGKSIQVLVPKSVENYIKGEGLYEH
# [6] = target: T5, Probable nicotinate-nucleotide adenylyltransferase; assay type: functional, Staphylococcus aureus subsp. aureus N315
# [7] = target: Ras and Rab interactor 1/Tyrosine-protein kinase ABL1 (Homo sapiens, UniProt P00519+Q13671); assay type: functional;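 further: biochemical TR-FRET dose-response test measuring inhibition of binding between Rin1 and Abl proteins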
# Sequence of Ras and Rab interactor 1/Tyrosine-protein kinase ABL1 (P00519 whole entry): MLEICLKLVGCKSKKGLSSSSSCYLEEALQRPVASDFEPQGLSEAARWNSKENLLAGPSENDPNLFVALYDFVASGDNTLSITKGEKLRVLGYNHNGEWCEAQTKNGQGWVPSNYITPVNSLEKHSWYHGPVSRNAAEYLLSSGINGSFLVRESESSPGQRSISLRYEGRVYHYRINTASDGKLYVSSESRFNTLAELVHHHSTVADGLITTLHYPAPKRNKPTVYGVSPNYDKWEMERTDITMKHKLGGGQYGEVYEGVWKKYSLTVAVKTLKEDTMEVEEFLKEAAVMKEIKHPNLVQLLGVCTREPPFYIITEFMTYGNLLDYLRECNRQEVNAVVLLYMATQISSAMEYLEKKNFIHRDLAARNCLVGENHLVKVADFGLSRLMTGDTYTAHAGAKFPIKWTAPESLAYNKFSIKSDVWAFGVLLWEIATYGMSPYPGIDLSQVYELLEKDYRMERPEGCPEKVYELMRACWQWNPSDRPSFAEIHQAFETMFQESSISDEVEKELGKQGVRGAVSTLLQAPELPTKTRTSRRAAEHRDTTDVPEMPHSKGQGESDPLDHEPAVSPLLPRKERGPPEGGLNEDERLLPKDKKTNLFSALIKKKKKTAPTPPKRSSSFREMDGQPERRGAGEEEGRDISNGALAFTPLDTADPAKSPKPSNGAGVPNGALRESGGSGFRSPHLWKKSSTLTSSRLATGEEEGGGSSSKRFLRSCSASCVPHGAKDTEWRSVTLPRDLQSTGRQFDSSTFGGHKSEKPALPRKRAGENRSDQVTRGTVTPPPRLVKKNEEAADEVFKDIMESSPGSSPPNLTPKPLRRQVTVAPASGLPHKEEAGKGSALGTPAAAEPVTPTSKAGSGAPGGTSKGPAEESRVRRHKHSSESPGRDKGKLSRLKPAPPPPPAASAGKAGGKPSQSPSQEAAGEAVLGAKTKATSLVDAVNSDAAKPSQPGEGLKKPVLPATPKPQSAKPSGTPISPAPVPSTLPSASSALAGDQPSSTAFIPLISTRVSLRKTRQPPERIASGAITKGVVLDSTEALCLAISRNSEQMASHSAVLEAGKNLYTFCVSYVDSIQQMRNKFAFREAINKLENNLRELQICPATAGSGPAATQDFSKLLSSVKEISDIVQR
# Sequence of Ras and Rab interactor 1/Tyrosine-protein kinase ABL1 (Q13671 whole entry): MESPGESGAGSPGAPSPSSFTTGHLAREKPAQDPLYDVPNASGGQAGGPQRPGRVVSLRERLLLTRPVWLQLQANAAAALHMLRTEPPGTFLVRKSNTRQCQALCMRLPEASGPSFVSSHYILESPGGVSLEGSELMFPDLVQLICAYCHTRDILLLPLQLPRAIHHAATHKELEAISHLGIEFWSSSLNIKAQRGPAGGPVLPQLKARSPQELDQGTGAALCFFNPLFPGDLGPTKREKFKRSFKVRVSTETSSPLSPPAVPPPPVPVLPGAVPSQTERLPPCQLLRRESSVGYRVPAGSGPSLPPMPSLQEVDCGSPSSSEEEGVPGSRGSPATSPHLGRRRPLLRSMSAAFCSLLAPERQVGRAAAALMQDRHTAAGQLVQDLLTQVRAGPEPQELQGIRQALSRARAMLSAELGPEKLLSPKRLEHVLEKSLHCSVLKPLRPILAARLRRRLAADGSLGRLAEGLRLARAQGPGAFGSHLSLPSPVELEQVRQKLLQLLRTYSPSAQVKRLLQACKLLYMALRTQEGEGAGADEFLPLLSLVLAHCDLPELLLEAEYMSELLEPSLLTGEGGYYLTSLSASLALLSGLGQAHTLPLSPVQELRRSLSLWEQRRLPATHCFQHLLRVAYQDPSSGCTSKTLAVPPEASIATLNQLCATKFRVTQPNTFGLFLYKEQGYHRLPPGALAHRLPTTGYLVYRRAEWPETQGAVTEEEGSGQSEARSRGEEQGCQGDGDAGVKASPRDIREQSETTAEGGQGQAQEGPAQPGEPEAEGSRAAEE
# [8] = Luminescence Cell-Based Dose Retest to Confirm Inhibitors of Cancer Stem Cells. [Related pubchem assays (depositor defined):AID2717, AID2721]; assay type: functional; details: Homo sapiens
# [9] = target: T6, Small ubiquitin-related modifier 1 (Homo sapiens, UniProt P63165); experiment: SUMO1 protein-protein binding blockers, potency – biochemical, FRET, dose response (AID 624383); assay type: functional; details: read-out: IC50_Mean
# T6 sequence (P63165 whole entry): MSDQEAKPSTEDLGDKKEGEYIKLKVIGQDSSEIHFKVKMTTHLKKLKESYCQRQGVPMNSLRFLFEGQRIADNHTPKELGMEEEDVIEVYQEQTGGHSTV
# [10] = target: T6, Small ubiquitin-related modifier 1; experiment: SUMO1 protein interaction blockers, potency – biochemical, fluorescence polarization, uHTS hits, dose response (AID 624382); assay type: functional; details: read-out: IC50_Mean
# [11] = target: T7, RNA-binding protein pos-1 (Caenorhabditis elegans, UniProt G5EF15); experiment: disruptors of C. elegans POS-1 RNA interaction – biochemical, fluorescence polarization, dose response (AID 1964);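 further: purified POS-1 fused to maltose binding protein made in E. coli; potency of compounds blocking POS-1 binding to fluorescent RNA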
# T7 sequence (G5EF15 whole entry): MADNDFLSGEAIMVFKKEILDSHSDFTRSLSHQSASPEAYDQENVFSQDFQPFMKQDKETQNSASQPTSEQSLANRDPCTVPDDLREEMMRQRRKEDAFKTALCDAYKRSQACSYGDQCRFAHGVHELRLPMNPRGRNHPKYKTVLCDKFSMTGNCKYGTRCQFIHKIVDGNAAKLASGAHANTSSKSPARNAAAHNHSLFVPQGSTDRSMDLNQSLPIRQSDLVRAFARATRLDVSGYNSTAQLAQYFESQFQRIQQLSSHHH
# [12] = target: T8, Zinc finger protein mex-5 (Caenorhabditis elegans, UniProt Q9XUB2); experiment: potency of MEX-5 RNA-binding blockers – biochemical, C. elegans, fluorescence polarization, dose response (AID 1960)
# T8 sequence (Q9XUB2 whole entry): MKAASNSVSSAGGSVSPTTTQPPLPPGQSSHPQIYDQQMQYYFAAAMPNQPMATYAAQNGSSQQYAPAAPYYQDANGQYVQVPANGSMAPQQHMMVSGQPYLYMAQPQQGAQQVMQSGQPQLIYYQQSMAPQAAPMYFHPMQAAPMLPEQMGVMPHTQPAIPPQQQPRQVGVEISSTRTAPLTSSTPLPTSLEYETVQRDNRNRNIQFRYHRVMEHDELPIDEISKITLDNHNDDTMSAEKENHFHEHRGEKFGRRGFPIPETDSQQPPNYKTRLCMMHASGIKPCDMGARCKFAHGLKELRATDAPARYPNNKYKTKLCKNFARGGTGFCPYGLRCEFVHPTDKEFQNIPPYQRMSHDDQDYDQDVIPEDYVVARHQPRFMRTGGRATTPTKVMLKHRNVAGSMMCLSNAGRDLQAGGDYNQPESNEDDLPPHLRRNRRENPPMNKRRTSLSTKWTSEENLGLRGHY
# [13] = target: T9, Long-chain-fatty-acid--AMP ligase FadD28 (Mycobacterium tuberculosis, UniProt P9WQ59); experiment: Fluorescence polarization aasay to screen for inhibitors that compete for the binding of FadD28 to a bisubstrate Measured in Biochemical System Using Plate Reader - 2147-01_Inhibitor_Dose_CherryPick_Activity.; assay type: functional, Mycobacterium tuberculosis H37Rv
# T9 sequence (P9WQ59 whole entry): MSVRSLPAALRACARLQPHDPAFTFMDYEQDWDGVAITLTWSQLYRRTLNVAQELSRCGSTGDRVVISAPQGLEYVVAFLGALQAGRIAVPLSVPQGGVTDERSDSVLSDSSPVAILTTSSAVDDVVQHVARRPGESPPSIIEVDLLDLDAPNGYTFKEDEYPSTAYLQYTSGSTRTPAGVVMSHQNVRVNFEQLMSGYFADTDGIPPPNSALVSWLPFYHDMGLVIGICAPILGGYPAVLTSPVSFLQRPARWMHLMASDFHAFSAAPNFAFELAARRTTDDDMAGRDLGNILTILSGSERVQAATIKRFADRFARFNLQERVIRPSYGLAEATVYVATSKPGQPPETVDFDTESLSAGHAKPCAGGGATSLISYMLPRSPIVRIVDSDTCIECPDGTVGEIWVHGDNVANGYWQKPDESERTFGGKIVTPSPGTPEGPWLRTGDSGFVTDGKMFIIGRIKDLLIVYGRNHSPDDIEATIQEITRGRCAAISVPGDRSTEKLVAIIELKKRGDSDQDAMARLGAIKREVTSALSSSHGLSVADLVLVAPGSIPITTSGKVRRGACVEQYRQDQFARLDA
# [14] = viability loss in THP-1 monocytes – THP-1 cells, cytotoxicity control for Vif-APOBEC3G degradation inhibitor project, dose response (AID 1117359); assay type: functional; details: THP-1
# [15] = Trypanosoma cruzi growth suppression in host cells – NIH3T3 host cells, beta-gal luminescence, confirmation (AID 2044); assay type: functional, cell-based;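 further: intracellular parasites grown in NIH/3T3 mouse fibroblasts as host cells; luminescent beta-galactosidase reporter signal from transgenic T. cruzi replicating inside host cells; inhibitors lower the luminescence signal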
# [16] = NIH3T3 cell viability loss – ATP luminescence, mouse fibroblasts, counter-screen, dose response (AID 2010); assay type: functional, cell-based;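 further: cells exposed to compound for about 90 hours before reading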
# [17] = HepG2 cell cytotoxicity, dose response, cytotoxicity control for non-replicating M. tuberculosis project (AID 489018); assay type: functional; details: Mycobacterium tuberculosis
# [18] = THP-1 cell cytotoxicity, dose response, cytotoxicity control for non-replicating M. tuberculosis project (AID 489025); assay type: functional
# [19] = viability loss in HeLa cells – cytotoxicity control for MgcRacGAP inhibitor project, dose response (AID 624300); assay type: functional
# [20] = Vero E6 cell cytotoxicity, dose response, cytotoxicity control for non-replicating M. tuberculosis project, secondary assay (AID 492998); assay type: functional, VeroE6; details: Vero C1008
structure (smiles),measurement,setting,value
Clc1ccc(Br)cc1-c1nc(-c2ccncc2)no1,IC50,[1],12.2 µM (active)
CCOC(=O)c1c(NC(=O)/C=C/C(=O)O)sc(C)c1-c1ccc(C)c(C)c1,CC50,Vero,> 40 µM (active)
same,AC50,[2],8.39 µM (active)
same,IC50,Genome polyprotein,75.1 µM (active)
same,EC50,Protein RecA,1.89 µM (active)
Cc1cnc(NC(=O)C2CC(=O)N(c3ccc4c(c3)OCCO4)C2)s1 (stereo unspecified),IC50,[3],7.49 µM (active)
O=C(c1cccc(F)c1)N1CC[C@@H]2[C@H](CO)Nc3ccc(-c4cccc(F)c4)cc3[C@@H]21,AC50,[4],0.185 µM (active)
O=C(Nc1ccc(S(=O)(=O)Nc2nccs2)cc1)c1cc(-c2ccccc2Cl)nc2ccccc12,IC50,[5],22.2 µM (active)
same,IC50,[6],6.99 µM (active)
CCOC(=O)c1ccc(NC(=O)NC2CC3CCC(C2)N3)cc1 (stereo unspecified),IC50,[7],31.7 µM (inactive)
Cc1ccc([N+](=O)[O-])cc1-c1ccc(/C=C(\C#N)c2[nH]nc(N)c2C#N)o1,AC50,[8],2.98 µM (active)
same,IC50,[9],1.74 µM (active)
same,IC50,[10],> 66.6 µM (inactive)
c1coc(CNc2ncnc3ccccc23)c1,IC50,[3],4.34 µM (active)
Cc1cccc(NC(=O)CN2C(=O)N/C(=C\c3cccn3-c3cccc(C(=O)O)c3)C2=O)c1,EC50,[11],> 300 µM (not active)
same,EC50,[12],> 300 µM (not active)
same,AC50,[13],> 100 µM (inactive)
C[C@@H]1CN([C@H](C)CO)C(=O)Cc2cc(NC(=O)Cn3cnnn3)ccc2O[C@H]1CN(C)Cc1ccc2c(c1)OCO2,AC50,[4],7.3 µM (active)
O=C(Nc1ccn([C@H]2CC[C@@H](CO)O2)c(=O)n1)c1ccccc1,IC50,[7],66.6 µM (inactive)
O=C(NC(=S)Nc1cccc(S(=O)(=O)NC2=NCCC2)c1)c1cc(-c2ccco2)nc2ccccc12,CC50,[14],> 40 µM (active)
same,IC50,[5],35 µM (active)
same,IC50,[6],10.4 µM (active)
O=C(Nc1cccc(NC(=O)c2ccc(-c3ccc(Br)cc3)o2)c1)c1ccco1,EC50,[15],2.73 µM (active)
same,IC50,[9],6.92 µM (active)
same,IC50,[10],> 66.6 µM (inactive)
same,EC50,[16],> 30 µM (not active)
COc1cc(CNCCNC(=O)c2nonc2N)ccc1OCc1ccc(Cl)cc1,CC50,[17],> 20 µM (active)
same,CC50,[18],24.3 µM (active)
same,CC50,[19],75.4 µM (active)
same,CC50,[20],> 20 µM (active)
CCCc1cc(=O)oc2c3c(cc(OCC(=O)NCCCn4ccnc4)c12)OC(C)(C)CC3,AC50,[4],5.93 µM (active)
